Results: paper PMC7527510, “Identification of the dog orthologue of human MAS-related G protein coupled receptor X2 (MRGPRX2) essential for drug-induced pseudo-allergic reactions” (Scientific Reports, 2020)
“And” between values parts separate entries of the source, which are not always exact repeats. Identical values can stand only once. “Also recorded” adds a separate entry of the source. Like-named read-outs stand apart in the source and are kept apart here.

Columns and labels:
[1] = target: T1, human MRGPRX2 (Homo sapiens, UniProt Q96LB1); experiment: Intracellular Ca2+ mobilisation assay in HEK293 cells transiently transfected with human MRGPRX2; format: cell-based; conditions: for Activation of human MRGPRX2 (increase in intracellular Ca2+): HEK293 cells transfected with human MRGPRX2, fluoroquinolones up to 1000 μg/mL; for EC50: human MRGPRX2-expressing HEK293 cells, mean ± SD of three independent experiments, read-out: EC50 on changes in intracellular Ca2+ levels, Human MRGPRX2 (converted)
T1 construct: expressed in transfected cells; host or cells: HEK293 (JCRB Cell Bank), transient, pcDNA3.1(+) vector
T1 sequence (Q96LB1 1-330): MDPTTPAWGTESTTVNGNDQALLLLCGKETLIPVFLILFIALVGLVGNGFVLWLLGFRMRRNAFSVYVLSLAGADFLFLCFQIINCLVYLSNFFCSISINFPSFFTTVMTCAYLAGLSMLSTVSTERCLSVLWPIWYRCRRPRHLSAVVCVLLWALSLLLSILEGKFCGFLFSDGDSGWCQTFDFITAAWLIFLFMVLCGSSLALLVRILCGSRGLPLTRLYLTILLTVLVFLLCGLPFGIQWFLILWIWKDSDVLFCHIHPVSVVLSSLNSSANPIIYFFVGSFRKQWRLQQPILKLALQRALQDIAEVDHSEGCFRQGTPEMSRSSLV
Protocol: (§1) HEK293 cells obtained from the JCRB Cell Bank (Osaka, Japan) were transfected transiently with dog MRGPRD, MRGPRF, MRGPRG, or MRGPRX2 or human MRGPRX2. Lipofectamine 2000 Reagent (Thermo Fisher Scientific Inc.) and pcDNA3.1(+) vector containing each gene were diluted and mixed using Opti-MEM I Reduced Serum Medium (Thermo Fisher Scientific Inc.) to prepare lipid-DNA complexes (final concentrations: lipofectamine 2.5 μL/mL and DNA 2,500 ng/mL). HEK293 cells were detached using TrypLE™ Express (Thermo Fisher Scientific Inc.) and prepared to 7 × 10^5 cells/mL with the lipid-DNA complex. Thereafter, 25 μL cells (1.75 × 10^4 cells/well) were seeded per well in 384-well flat-bottomed plates (Corning Incorporated, Corning, NY, USA) and incubated overnight at 37 °C under 5% CO2 conditions. Cells treated with plasmid-free lipid solution were used as negative control (non-transfected cells).
Test articles were dissolved in HBSS (pH 7.4, Thermo Fisher Scientific Inc., Waltham, MA, USA) supplemented with 20 mM HEPES (Sigma-Aldrich Co. LLC.) and 0.05 vol% bovine serum albumin (BSA, Sigma-Aldrich Co. LLC.). […] Intracellular Ca^2+ levels were analysed using Calcium Kit II-iCellux (Dojindo Molecular Technologies, Inc., Kumamoto, Japan), according to the manufacturer's instructions. HEK293 cells (1.75 × 10^4 cells/well) were loaded with 1.25 mM probenecid and calcium probe for 45 min at 25 °C. Changes in fluorescence intensities before and after addition of the test articles were measured over time using FLIPR Tetra (Molecular Devices, LLC., Sunnyvale, CA, USA) with excitation at 470–495 nm and emission at 515–575 nm. The test articles were added at 10 s after beginning the measurements. Samples were measured in duplicate or quadruplicate. The data were analysed using ScreenWorks (Molecular Devices, LLC. Version 3.2.0.14) to determine the difference between maximal and minimal fluorescence intensity (max–min).
(§2) Data represent the mean ± SD of three animals for distribution study or three independent assays for Ca^2+ mobilisation. EC50 of each test article used in the Ca^2+ mobilisation assay was calculated using the sigmoid Emax model. These analyses were performed by using the SAS System Release 8.2 software (SAS Institute Inc., Cary, NC, USA).

[2] = target: dog MRGPRX2 (Canis lupus familiaris, UniProt A0A4Y5P885); experiment: Intracellular Ca2+ mobilisation assay in HEK293 cells transiently transfected with dog MRGPRX2; format: cell-based; conditions: for Difference in EC50 values between dog MRGPRX2 and human MRGPRX2: EC50 lower in dog MRGPRX2-expressing cells than in human MRGPRX2-expressing cells; for EC50: mean ± SD of three independent experiments; for Activation of dog MRGPRX2 (increase in intracellular Ca2+): HEK293 cells transfected with dog MRGPRX2, fluoroquinolones up to 1000 μg/mL
Protocol: as §1
Test articles were dissolved in HBSS (pH 7.4, Thermo Fisher Scientific Inc., Waltham, MA, USA) supplemented with 20 mM HEPES (Sigma-Aldrich Co. LLC.) and 0.05 vol% bovine serum albumin (BSA, Sigma-Aldrich Co. LLC.). The highest concentration of the fluoroquinolones was set at 1000 μg/mL based on previous reports at which the test substances induced marked intracellular Ca^2+ mobilisation in human MRGPRX2-expressing HEK293 cells[11] or caused histamine release in rat or human mast cells[16],[25],[36]. Intracellular Ca^2+ levels were analysed using Calcium Kit II-iCellux (Dojindo Molecular Technologies, Inc., Kumamoto, Japan), according to the manufacturer's instructions. HEK293 cells (1.75 × 10^4 cells/well) were loaded with 1.25 mM probenecid and calcium probe for 45 min at 25 °C. Changes in fluorescence intensities before and after addition of the test articles were measured over time using FLIPR Tetra (Molecular Devices, LLC., Sunnyvale, CA, USA) with excitation at 470–495 nm and emission at 515–575 nm. The test articles were added at 10 s after beginning the measurements. Samples were measured in duplicate or quadruplicate. The data were analysed using ScreenWorks (Molecular Devices, LLC. Version 3.2.0.14) to determine the difference between maximal and minimal fluorescence intensity (max–min).
as §2

[3] = test system: non-transfected HEK293 cells; experiment: Intracellular Ca2+ levels in non-transfected HEK293 cells (negative control cells); format: cell-based, human; conditions: 1,000 μg/mL; data excluded from the analysis
Protocol: as §1, with “Thereafter, 25 μL cells (1.75 × 10^4 cells/well) were seeded per well in 384-well flat-bottomed plates (Corning Incorporated, Corning, NY, USA) and incubated overnight at 37 °C under 5% CO2 conditions. Cells treated with plasmid-free lipid solution were used as negative control (non-transfected cells).” left out
Test articles were dissolved in HBSS (pH 7.4, Thermo Fisher Scientific Inc., Waltham, MA, USA) supplemented with 20 mM HEPES (Sigma-Aldrich Co. LLC.) and 0.05 vol% bovine serum albumin (BSA, Sigma-Aldrich Co. LLC.). […] Intracellular Ca^2+ levels were analysed using Calcium Kit II-iCellux (Dojindo Molecular Technologies, Inc., Kumamoto, Japan), according to the manufacturer's instructions. […] Changes in fluorescence intensities before and after addition of the test articles were measured over time using FLIPR Tetra (Molecular Devices, LLC., Sunnyvale, CA, USA) with excitation at 470–495 nm and emission at 515–575 nm. […] Samples were measured in duplicate or quadruplicate. […]

[4] = test system: dispersed canine skin mast cells; design: method as in PMID 10864147; conditions: cited from earlier work
[5] = design: method as in PMID 9635500; conditions: cited from earlier work
[6] = test system: mouse Mrgprb2; design: method as in PMID 25517090; conditions: cited from earlier work
[7] = EC50 on changes in intracellular Ca2+ levels, Dog MRGPRX2, dog MRGPRX2-expressing HEK293 cells

Sequence of dog MRGPRX2 (A0A4Y5P885 entry or part of it): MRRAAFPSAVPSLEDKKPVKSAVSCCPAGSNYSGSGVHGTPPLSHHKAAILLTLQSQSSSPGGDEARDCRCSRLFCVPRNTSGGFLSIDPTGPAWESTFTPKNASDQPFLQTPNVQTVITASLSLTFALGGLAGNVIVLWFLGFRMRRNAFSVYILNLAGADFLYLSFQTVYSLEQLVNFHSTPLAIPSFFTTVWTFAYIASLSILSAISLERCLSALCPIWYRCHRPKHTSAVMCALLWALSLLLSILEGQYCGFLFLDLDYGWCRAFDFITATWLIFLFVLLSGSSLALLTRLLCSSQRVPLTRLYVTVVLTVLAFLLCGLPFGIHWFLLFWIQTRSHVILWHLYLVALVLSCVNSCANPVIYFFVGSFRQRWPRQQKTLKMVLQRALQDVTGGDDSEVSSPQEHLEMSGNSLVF

Row | EC50 ([2]; dog MRGPRX2-expressing HEK293 cells, read-out: EC50 on changes in intracellular Ca2+ levels, Dog MRGPRX2 (converted)) | Compound | Activation of human MRGPRX2 (increase in intracellular Ca2+) [1] | Difference in EC50 values between dog MRGPRX2 and human MRGPRX2 [2] | EC50 [2, 7] | Activation of dog MRGPRX2 (increase in intracellular Ca2+) [2] | Nonspecific increase in intracellular Ca2+ levels in non-transfected cells [3] | EC50 [1] | Concentration inducing histamine release from dispersed canine skin mast cells [4] | Histamine release in dogs [5] | EC50 in mouse Mrgprb2-expressing cells compared to human MRGPRX2-expressing cells ([6]; higher in mouse) | EC50 ([6]; read-out: EC50 in mouse Mrgprb2-expressing cells)
1 |  | O=C(O)c1cn(C2CC2)c2cc(N3CCNCC3)c(F)cc2c1=O [CPFX, ciprofloxacin] | concentration-dependent | ca. sevenfold | ~45.3 µM and 43.8 µM | responded | induced nonspecific increase |  |  |  |  | 
2 | 210 µM | COc1c(N2CCNC(C)C2)c(F)cc2c(=O)c(C(=O)O)cn(C3CC3)c12 (centres unmarked) [GFLX, gatifloxacin] | concentration-dependent |  |  | responded |  | 529 µM |  |  |  | 
3 |  | C[C@H]1COc2c(N3CCN(C)CC3)c(F)cc3c(=O)c(C(=O)O)cn1c23 [LVFX, levofloxacin] | concentration-dependent | ca. sevenfold | ~166 µM and 163 µM | responded |  | 1060 µM | ≥ 30 µg/mL |  |  | 
4 |  | C[C@H]1COc2c(C3(N)CC3)c(F)cc3c(=O)c(C(=O)O)cn1c23 [PZFX, pazufloxacin] | did not activate |  |  | did not activate |  |  |  | does not induce histamine release; also recorded: does not cause histamine release |  | 
5 |  | substance P |  |  |  |  |  |  |  |  | 360 fold | 54 µM
